Measurements taken from ChEMBL document CHEMBL1201862, “PubChem BioAssay data set” (2004).
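How tested: cells in 96-well plates exposed to compound for 48 hours at five concentrations. GI50 is the concentration that inhibits growth by half.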 Active and inactive are the calls of the source. Rule as the data show it: active = GI50 up to about 1.1 µM and inactive = higher.

Assays:
Assay in all cases: DTP human tumour cell line panel, 48 h
SK-MEL-5 = test system: SK-MEL-5
SK-MEL-2 = test system: SK-MEL-2
COLO 205 = test system: COLO 205
SK-OV-3 = test system: SK-OV-3
CCRF-CEM = test system: CCRF-CEM
SN12C = test system: SN12C
PC-3 = test system: PC-3
OVCAR-3 = test system: OVCAR-3
HCC 2998 = test system: HCC 2998
SNB-19 = test system: SNB-19
MOLT-4 = test system: MOLT-4
HCT-15 = test system: HCT-15
OVCAR-5 = test system: OVCAR-5
LOX IMVI = test system: LOX IMVI
HT-29 = test system: HT-29
ACHN = test system: ACHN
Hs-578T = test system: Hs-578T
IGROV-1 = test system: IGROV-1
OVCAR-4 = test system: OVCAR-4

Row | Structure (SMILES) | GI50 (SK-MEL-5) | GI50 (SK-MEL-2) | GI50 (COLO 205) | GI50 (SK-OV-3) | GI50 (CCRF-CEM) | GI50 (SN12C) | GI50 (PC-3) | GI50 (OVCAR-3) | GI50 (HCC 2998) | GI50 (SNB-19) | GI50 (MOLT-4) | GI50 (HCT-15) [µM] | GI50 (OVCAR-5) | GI50 (LOX IMVI) | GI50 (HT-29) | GI50 (ACHN) | GI50 (Hs-578T) | GI50 (IGROV-1) | GI50 (OVCAR-4)
1 | C[C@H](CCC(=O)NN)[C@H]1CC[C@H]2[C@@H]3CC[C@@H]4C[C@H](O)CC[C@]4(C)[C@H]3CC[C@]12C | 23.4 µM (inactive) | > 88.5 µM (inactive) | 31.6 µM (inactive) | > 100 µM (inactive) | 12.3 µM (inactive) | 55.7 µM (inactive) | 44.8 µM (inactive) | 32 µM (inactive) | 41.4 µM (inactive) | 97.3 µM (inactive) | 10.4 µM (inactive) | 39.7 | > 88.3 µM (inactive) | 31.6 µM (inactive) | 27.7 µM (inactive) | 54.8 µM (inactive) | > 100 µM (inactive) | 83.4 µM (inactive) | > 67.1 µM (inactive)
2 | c1csc(-c2csc(-c3ccsc3)c2)c1 | > 100 µM (inactive) | > 100 µM (inactive) | > 100 µM (inactive) | > 100 µM (inactive) | > 100 µM (inactive) | > 100 µM (inactive) | > 100 µM (inactive) | > 100 µM (inactive) | > 100 µM (inactive) | > 100 µM (inactive) | 62.4 µM (inactive) | > 100 | > 100 µM (inactive) | > 100 µM (inactive) | > 100 µM (inactive) | > 100 µM (inactive) | > 100 µM (inactive) | > 100 µM (inactive) | > 100 µM (inactive)
3 | N#Cc1nc(CCN2C(=O)c3ccccc3C2=O)oc1N | > 100 µM (inactive) | > 100 µM (inactive) | > 100 µM (inactive) | > 100 µM (inactive) | > 100 µM (inactive) | > 100 µM (inactive) | > 100 µM (inactive) | > 100 µM (inactive) | 0.0845 µM (active) | > 100 µM (inactive) | > 100 µM (inactive) | > 100 | > 100 µM (inactive) | > 100 µM (inactive) | > 100 µM (inactive) | > 100 µM (inactive) | > 100 µM (inactive) | > 100 µM (inactive) | > 100 µM (inactive)
4 | c1c[nH]c(-c2ccc(-c3ccc[nH]3)c3nsnc23)c1 | > 42.9 µM (inactive) | 44.3 µM (inactive) | 1.53 µM (inactive) | > 68.1 µM (inactive) | 15.4 µM (inactive) | > 54.5 µM (inactive) | > 41.1 µM (inactive) | 11.3 µM (inactive) | 0.456 µM (active) | > 67.6 µM (inactive) | > 30.3 µM (inactive) | 0.245 | 1.14 µM (inactive) | > 100 µM (inactive) | > 26.3 µM (inactive) | > 52.6 µM (inactive) | 35.9 µM (inactive) | 20.3 µM (inactive) | 0.612 µM (active)
5 | NS(=O)(=O)c1cc(S(N)(=O)=O)c(NC(=O)N(c2ccccc2)c2ccccc2)c(Cl)c1Cl | 14.1 µM (inactive) | 22.6 µM (inactive) | 22.9 µM (inactive) | 24 µM (inactive) | 1.98 µM (inactive) | 19.5 µM (inactive) | 24 µM (inactive) | 18.5 µM (inactive) | 19.2 µM (inactive) | 40.4 µM (inactive) | 12.4 µM (inactive) | 20.3 | 42.1 µM (inactive) | 12.5 µM (inactive) | 19.5 µM (inactive) | 23.2 µM (inactive) | 17.2 µM (inactive) | 8.13 µM (inactive) | 27.4 µM (inactive)
6 | O=S(=O)(N=[Se](=O)(c1ccccc1)c1ccccc1)c1ccccc1 | > 100 µM (inactive) | 48.3 µM (inactive) | > 100 µM (inactive) | > 100 µM (inactive) | > 100 µM (inactive) | > 100 µM (inactive) | > 100 µM (inactive) | > 100 µM (inactive) | > 100 µM (inactive) | 60 µM (inactive) | > 100 µM (inactive) | > 100 | > 100 µM (inactive) | > 100 µM (inactive) | > 100 µM (inactive) | > 100 µM (inactive) | > 100 µM (inactive) | 28 µM (inactive) | > 100 µM (inactive)
7 | COC1CCC(O)C(/C=C/[N+](=O)[O-])C1 (stereo unspecified) | 4.06 µM (inactive) | 10.2 µM (inactive) | 2.28 µM (inactive) | 10.1 µM (inactive) | 2.69 µM (inactive) | 2.8 µM (inactive) | 2.06 µM (inactive) | 8.3 µM (inactive) | 1.7 µM (inactive) | 11.5 µM (inactive) | 2.18 µM (inactive) | 1.82 | 9.1 µM (inactive) | 1.54 µM (inactive) | 3.37 µM (inactive) | 15.7 µM (inactive) | 2.99 µM (inactive) | 1.66 µM (inactive) | 14.8 µM (inactive)
8 | O=c1ccn(C/C=C/c2ccccc2)c(=S)n1C/C=C/c1ccccc1 | 35.2 µM (inactive) | > 100 µM (inactive) | 54 µM (inactive) | > 100 µM (inactive) | 18.4 µM (inactive) | 31.3 µM (inactive) | 56.4 µM (inactive) | > 100 µM (inactive) | 50.7 µM (inactive) | > 100 µM (inactive) | 50.4 µM (inactive) | > 100 | > 100 µM (inactive) | 28.6 µM (inactive) | > 100 µM (inactive) | > 100 µM (inactive) | > 100 µM (inactive) | > 100 µM (inactive) | 90.4 µM (inactive)
9 | COCC1OC(OC2OCC3OC4(OCC(O)(C(C)OC)C5OCOC54)OC3C2OC)C(OC)C(O)C1OC1OC(C)C(OC)C(OC2OC(C)C3OC4(CC(O)C(OC5CC(OC6CC(C)([N+](=O)[O-])C(OC)C(C)O6)C(OC(=O)c6c(C)c(Cl)c(O)c(Cl)c6OC)C(C)O5)C(C)O4)OC3(C)C2O)C1O (stereo unspecified) | > 100 µM (inactive) | > 100 µM (inactive) | > 100 µM (inactive) | > 100 µM (inactive) | > 100 µM (inactive) | > 100 µM (inactive) | > 100 µM (inactive) | > 100 µM (inactive) | > 100 µM (inactive) | > 100 µM (inactive) | > 100 µM (inactive) | > 100 | > 100 µM (inactive) | > 100 µM (inactive) | > 100 µM (inactive) | > 100 µM (inactive) | > 100 µM (inactive) | > 100 µM (inactive) | > 100 µM (inactive)
10 | C=C(CO[Si](C)(C)C(C)(C)C)C(C)=O | 14.6 µM (inactive) | 20.5 µM (inactive) | 24.5 µM (inactive) | > 89.3 µM (inactive) | 0.678 µM (active) | 27.7 µM (inactive) | 26.9 µM (inactive) | 20.4 µM (inactive) | 26.1 µM (inactive) | > 86.1 µM (inactive) | 2.18 µM (inactive) | 13.9 | 31 µM (inactive) | 4.94 µM (inactive) | 19.5 µM (inactive) | 26.5 µM (inactive) | 25.8 µM (inactive) | 25.5 µM (inactive) | 21 µM (inactive)
11 | C=C(Cl)/C(=C/Cl)CCC(Br)C(C)(C)Cl.C=C(Cl)/C(=C\Cl)CCC(Br)C(C)(C)Cl (stereo unspecified) | > 10 µM (inactive) | > 10 µM (inactive) | > 10 µM (inactive) | > 10 µM (inactive) | 2.66 µM (inactive) | > 10 µM (inactive) | > 10 µM (inactive) | > 10 µM (inactive) | > 10 µM (inactive) | > 10 µM (inactive) | 3.1 µM (inactive) | > 10 | > 10 µM (inactive) | > 10 µM (inactive) | > 10 µM (inactive) | > 10 µM (inactive) | > 10 µM (inactive) | > 10 µM (inactive) | > 10 µM (inactive)
12 | Nc1ccc(S(=O)(=O)Nc2nc3ccccc3nc2N2CCCCC2)cc1 | 91 µM (inactive) | 88.1 µM (inactive) | 64.9 µM (inactive) | > 100 µM (inactive) | 48.5 µM (inactive) | 82 µM (inactive) | 59.3 µM (inactive) | > 100 µM (inactive) | 33.7 µM (inactive) | > 100 µM (inactive) | 27.5 µM (inactive) | 78.7 | > 100 µM (inactive) | > 100 µM (inactive) | > 100 µM (inactive) | 98.6 µM (inactive) | > 100 µM (inactive) | 80.9 µM (inactive) | 24.2 µM (inactive)
13 | Cc1cc(C)c2c(=N)c3ccccc3n(CCCCCCn3c4ccccc4c(=N)c4c(C)cc(C)nc43)c2n1 | 1.84 µM (inactive) | 1.66 µM (inactive) | 1.57 µM (inactive) | 1.62 µM (inactive) | 0.266 µM (active) | 1.5 µM (inactive) | 1.28 µM (inactive) | 1.66 µM (inactive) | 0.172 µM (active) | 0.767 µM (active) | 0.627 µM (active) | 0.181 | 1.84 µM (inactive) | 0.182 µM (active) | 0.462 µM (active) | 1.55 µM (inactive) | 1.66 µM (inactive) | 1.44 µM (inactive) | 1.43 µM (inactive)
14 | CC(C)OC(=O)Nc1cccc(Cl)c1 [CHLORPROPHAM] | > 100 µM (inactive) | > 100 µM (inactive) | > 100 µM (inactive) | > 100 µM (inactive) | > 100 µM (inactive) | > 100 µM (inactive) | 94.4 µM (inactive) | > 100 µM (inactive) | > 100 µM (inactive) | > 100 µM (inactive) | > 100 µM (inactive) | 83.6 | > 100 µM (inactive) | > 100 µM (inactive) | 87.7 µM (inactive) | > 100 µM (inactive) | > 100 µM (inactive) | > 100 µM (inactive) | > 100 µM (inactive)
